Assay results as given in US20210179569A1, “BENZAMIDE COMPOUNDS AND THEIR USE AS HERBICIDES II” (BASF SE, priority 2017, published 2021).

How the values were obtained:
Experiment in all cases: post-emergence greenhouse herbicidal test
Type in all cases: in vivo
Conditions in all cases: application rate 250 g/ha, 100 = complete destruction, 0 = no damage
[1] = system: CHEAL (Chenopodium album)
Excerpt: (§1) The seeds of the test plants were sown separately for each species. For the post-emergence treatment, the test plants were first grown to a height of 3 to 15 cm, depending on the plant habit, and only then treated with the active ingredients which had been suspended or emulsified in water. For this purpose, the test plants were either sown directly and grown in the same containers, or they were first grown separately as seedlings and transplanted into the test containers a few days prior to treatment. Depending on the species, the plants were kept at 10-25° C. or 20-25° C., respectively. The test period extended over 2 to 4 weeks. During this time, the plants were tended, and their response to the individual treatments was evaluated. Evaluation was carried out using a scale from 0 to 100. 100 means no emergence of the plants, or complete destruction of at least the aerial moieties, and 0 means no damage, or normal course of growth. A good herbicidal activity is given at values of at least 70 and a very good herbicidal activity is given at values of at least 85. At an application rate of 250 g/ha the following compounds were tested in post-emergence tests against: ECHCG (Echinocloa crus-galli) AMARE (Amaranthus retroflexus) CHEAL (Chenopodium album)

[2] = system: AMARE (Amaranthus retroflexus)
Excerpt: as §1

[3] = system: ECHCG (Echinocloa crus-galli)
Excerpt: as §1

Cn1nnnc1NC(=O)c1cc(Cl)cc(NC(=O)N(C2CC2)C2CC2)c1Cl [Example 1, 2,5-dichloro-3-(dicyclopropylcarbamoylamino)-N-(1-methyltetrazol-5-yl)benzamide]
>80: herbicidal activity against CHEAL (scale from 0 to 100) [1] | herbicidal activity against AMARE (scale from 0 to 100) [2] | herbicidal activity against ECHCG (scale from 0 to 100) [3]

CN(CC(F)(F)F)C(=O)Nc1cc(Cl)cc(C(=O)Nc2nnnn2C)c1Cl [Example 2, 2,5-dichloro-3-[(2,2,2-trifluoroethyl)(methyl)carbamoylamino]-N-(1-methyltetrazol-5-yl)benzamide]
>80: herbicidal activity against CHEAL (scale from 0 to 100) [1] | herbicidal activity against AMARE (scale from 0 to 100) [2] | herbicidal activity against ECHCG (scale from 0 to 100) [3]
